Test results: patent publication US12049450B2, “Pyridyloxy-carboxylate derivative and preparation method therefor, herbicidal composition, and use” (Qingdao Kingagroot Chemical Compound Co., Ltd., priority 2018, dated 2024)

Tests used:
Experiment in all cases: Post-emergence test experiment (greenhouse pot, spray at 2-3 leaf stage)
Format in all cases: in vivo
Settings in all cases: 1000 g/ha; post-emergence spray at 2-3 leaf stage; assessed after 3 weeks; fresh weight inhibition rate
[1] = tested on: Abutilon theophrasti
In short: (§1)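 Activity graded levels 0-5 by fresh-weight inhibition (level 5 above 85%, level 0 below 5%), assessed 3 weeks after treatment. Plants grown in greenhouse pots were sprayed post-emergence at 2-3 leaves using acetone/tween-80 solutions with methyl oleate synergist (1.5 L/ha).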

[2] = tested on: Digitaria sanguinalis
In short: as §1

[3] = tested on: Echinochloa crusgalli
In short: as §1

[4] = tested on: Galium spurium
In short: as §1

[5] = tested on: Monochoria vaginalis
In short: as §1

SMILES	Activity level (growth inhibition rate) Abutilon theophrasti [1]	Activity level (growth inhibition rate) Digitaria sanguinalis [2]	Activity level (growth inhibition rate) Echinochloa crusgalli [3]	Activity level (growth inhibition rate) Galium spurium [4]	Activity level (growth inhibition rate) Monochoria Vaginalis [5]
CC(Oc1nc(F)c(Cl)c(N)c1Cl)C(=O)SCc1ccc2cc(Cl)ccc2c1 (centres unmarked) [Compound 182]	5 (Level 5: the growth inhibition rate is greater than 85%)	5 (Level 5: the growth inhibition rate is greater than 85%)	5 (Level 5: the growth inhibition rate is greater than 85%)	5 (Level 5: the growth inhibition rate is greater than 85%)	5 (Level 5: the growth inhibition rate is greater than 85%)
COc1ccc2ccc(COC(=O)C(C)Oc3nc(F)c(Cl)c(N)c3Cl)cc2c1 (centres unmarked) [Compound 183]	5 (Level 5: the growth inhibition rate is greater than 85%)	5 (Level 5: the growth inhibition rate is greater than 85%)	5 (Level 5: the growth inhibition rate is greater than 85%)	5 (Level 5: the growth inhibition rate is greater than 85%)	5 (Level 5: the growth inhibition rate is greater than 85%)
CC(Oc1nc(F)c(Cl)c(N)c1Cl)C(=O)OCc1ccc2cnccc2c1 (centres unmarked) [Compound 184]	5 (Level 5: the growth inhibition rate is greater than 85%)	5 (Level 5: the growth inhibition rate is greater than 85%)	5 (Level 5: the growth inhibition rate is greater than 85%)	5 (Level 5: the growth inhibition rate is greater than 85%)	5 (Level 5: the growth inhibition rate is greater than 85%)
CC(Oc1nc(F)c(Cl)c(N)c1Cl)C(=O)OCc1ccc2nccnc2c1 (centres unmarked) [Compound 186]	5 (Level 5: the growth inhibition rate is greater than 85%)	5 (Level 5: the growth inhibition rate is greater than 85%)	5 (Level 5: the growth inhibition rate is greater than 85%)	5 (Level 5: the growth inhibition rate is greater than 85%)	5 (Level 5: the growth inhibition rate is greater than 85%)
CC(Oc1nc(F)c(Cl)c(N)c1Cl)C(=O)OCCc1cccc2cnncc12 (centres unmarked) [Compound 187]	5 (Level 5: the growth inhibition rate is greater than 85%)	5 (Level 5: the growth inhibition rate is greater than 85%)	5 (Level 5: the growth inhibition rate is greater than 85%)	5 (Level 5: the growth inhibition rate is greater than 85%)	5 (Level 5: the growth inhibition rate is greater than 85%)
CC(Oc1nc(F)c(Cl)c(N)c1Cl)C(=O)SCc1ccc2nnccc2c1 (centres unmarked) [Compound 188]	5 (Level 5: the growth inhibition rate is greater than 85%)	5 (Level 5: the growth inhibition rate is greater than 85%)	5 (Level 5: the growth inhibition rate is greater than 85%)	5 (Level 5: the growth inhibition rate is greater than 85%)	5 (Level 5: the growth inhibition rate is greater than 85%)
CC(Oc1nc(F)c(Cl)c(N)c1Cl)C(=O)OCc1ccc2c(c1)OCCO2 (centres unmarked) [Compound 189]	5 (Level 5: the growth inhibition rate is greater than 85%)	5 (Level 5: the growth inhibition rate is greater than 85%)	5 (Level 5: the growth inhibition rate is greater than 85%)	5 (Level 5: the growth inhibition rate is greater than 85%)	5 (Level 5: the growth inhibition rate is greater than 85%)
